From the NIST ThermoML archive (doi:10.1021/je030156p) come the findings set out here.

The structures appear in SMILES notation. Numbers after ± are expanded uncertainties.

For the data set the following is noted: Liquid, Ebulliometric method (Recirculating still).

As a reminder, the vapor or sublimation pressure is the equilibrium pressure above the liquid or solid. `FC(F)C(F)(F)F` [pentafluoroethane]: the “vapor or sublimation pressure” value runs as follows: (268.15 K) 573.7 ± 2 kPa; (273.15 K) 671.4 ± 2.1 kPa; (283.15 K) 907.6 ± 2.1 kPa; (293.15 K) 1202.8 ± 2.1 kPa; (303.15 K) 1566 ± 2.2 kPa; (313.15 K) 2004.9 ± 2.2 kPa.

Take `CCC` [propane]: the “vapor or sublimation pressure” value (268.15 K) worked out at 407.9 ± 2 kPa; the “vapor or sublimation pressure” value (273.15 K) came out at 476.9 ± 2 kPa; the “vapor or sublimation pressure” value (283.15 K) stood at 637.2 ± 2.1 kPa; the “vapor or sublimation pressure” value (293.15 K) turned out to be 839.2 ± 2.1 kPa; the “vapor or sublimation pressure” value (303.15 K) stood at 1074.6 ± 2.1 kPa; the “vapor or sublimation pressure” value (313.15 K) is 1364.3 ± 2.2 kPa.
